Tested on in the first experiment: not listed separately
Briefly: DRUGMATRIX: Phosphodiesterase PDE3 enzyme inhibition (substrate: [3H]cAMP + cAMP). In kind it is tissue-based, Homo sapiens. Conditions: platelet; Not Active = under 50% inhibition at 10 µM.
Regarding `COc1ccc(C2C(=O)c3ccccc3C2=O)cc1` [ANISINDIONE], the IC50 result was “Not Active” and the Ki result is “Not Active”.

As for `O=C1O[C@H]([C@@H](O)CO)C(O)=C1O` [ASCORBIC ACID], the IC50 entry is “Not Active” and the Ki result is “Not Active”.

As to `CN1[C@@H]2CC[C@H]1C[C@@H](OC(=O)C(CO)c1ccccc1)C2` (stereo partly drawn) [ATROPINE], the IC50 entry is listed as “Not Active” and the Ki entry was “Not Active”.

Take `CC(C(=O)O)c1ccc2oc(-c3ccc(Cl)cc3)nc2c1` (stereo not drawn) [BENOXAPROFEN]: the IC50 entry was “Not Active” and the Ki result is given as “Not Active”.

In the case of `O=C(O)CCNC(=O)c1ccccc1` [BETAMIPRON], the IC50 result is listed as “Not Active” and the Ki entry is “Not Active”.

As to `CC(=O)Oc1ccc(C(c2ccc(OC(C)=O)cc2)c2ccccn2)cc1` [BISACODYL], the IC50 entry is “Not Active” and the Ki entry is given as “Not Active”.

Regarding `Cc1cc2c(OCC(CNC(C)(C)C)OC(=O)c3ccccc3)cccc2[nH]1` (stereo not drawn) [BOPINDOLOL], the IC50 result is on record as “Not Active” and the Ki entry is on record as “Not Active”.

The target of a further experiment is T1, Adenosine receptor A1 (Homo sapiens, UniProt P30542).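 Note: radioligand binding assay at the adenosine A1 receptor, with DPCPX serving as the labelled ligand; in other assays of this panel Not Active means under 50% inhibition at 10 µM.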
T1 sequence (P30542 whole entry): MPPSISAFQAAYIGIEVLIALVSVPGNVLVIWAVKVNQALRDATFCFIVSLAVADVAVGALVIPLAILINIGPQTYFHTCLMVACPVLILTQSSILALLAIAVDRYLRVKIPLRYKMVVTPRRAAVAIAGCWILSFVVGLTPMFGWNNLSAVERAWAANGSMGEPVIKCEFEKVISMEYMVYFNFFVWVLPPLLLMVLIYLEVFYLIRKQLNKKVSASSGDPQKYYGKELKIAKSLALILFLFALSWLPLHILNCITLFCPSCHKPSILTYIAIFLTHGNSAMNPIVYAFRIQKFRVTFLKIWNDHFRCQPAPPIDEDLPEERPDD
Experiment: not given
In kind it is cell membranes, CHO, Membrane. Conditions: cho.
For `COc1ccc(C2C(=O)c3ccccc3C2=O)cc1` [ANISINDIONE], the IC50 entry is on record as “Not Active”.

As to `O=C1O[C@H]([C@@H](O)CO)C(O)=C1O` [ASCORBIC ACID], the IC50 entry is listed as “Not Active”.

Regarding `CN1[C@@H]2CC[C@H]1C[C@@H](OC(=O)C(CO)c1ccccc1)C2` (stereo partly drawn) [ATROPINE], the IC50 entry was “Not Active”.

`CC(C(=O)O)c1ccc2oc(-c3ccc(Cl)cc3)nc2c1` (stereo not drawn) [BENOXAPROFEN]: the IC50 result is “Not Active”.

For `O=C(O)CCNC(=O)c1ccccc1` [BETAMIPRON], the IC50 entry is recorded as “Not Active”.

In the case of `CC(=O)Oc1ccc(C(c2ccc(OC(C)=O)cc2)c2ccccn2)cc1` [BISACODYL], the IC50 result is listed as “Not Active”.

For `Cc1cc2c(OCC(CNC(C)(C)C)OC(=O)c3ccccc3)cccc2[nH]1` (stereo not drawn) [BOPINDOLOL], the IC50 result was “Not Active”.

The next experiment concerns the target T2, Angiotensin-converting enzyme (Oryctolagus cuniculus, UniProt P12822).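 Note: enzymatic inhibition of angiotensin-converting enzyme measured with FAPGG as the substrate; in other assays of this panel Not Active means under 50% inhibition at 10 µM.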
T2 sequence (P12822 whole entry): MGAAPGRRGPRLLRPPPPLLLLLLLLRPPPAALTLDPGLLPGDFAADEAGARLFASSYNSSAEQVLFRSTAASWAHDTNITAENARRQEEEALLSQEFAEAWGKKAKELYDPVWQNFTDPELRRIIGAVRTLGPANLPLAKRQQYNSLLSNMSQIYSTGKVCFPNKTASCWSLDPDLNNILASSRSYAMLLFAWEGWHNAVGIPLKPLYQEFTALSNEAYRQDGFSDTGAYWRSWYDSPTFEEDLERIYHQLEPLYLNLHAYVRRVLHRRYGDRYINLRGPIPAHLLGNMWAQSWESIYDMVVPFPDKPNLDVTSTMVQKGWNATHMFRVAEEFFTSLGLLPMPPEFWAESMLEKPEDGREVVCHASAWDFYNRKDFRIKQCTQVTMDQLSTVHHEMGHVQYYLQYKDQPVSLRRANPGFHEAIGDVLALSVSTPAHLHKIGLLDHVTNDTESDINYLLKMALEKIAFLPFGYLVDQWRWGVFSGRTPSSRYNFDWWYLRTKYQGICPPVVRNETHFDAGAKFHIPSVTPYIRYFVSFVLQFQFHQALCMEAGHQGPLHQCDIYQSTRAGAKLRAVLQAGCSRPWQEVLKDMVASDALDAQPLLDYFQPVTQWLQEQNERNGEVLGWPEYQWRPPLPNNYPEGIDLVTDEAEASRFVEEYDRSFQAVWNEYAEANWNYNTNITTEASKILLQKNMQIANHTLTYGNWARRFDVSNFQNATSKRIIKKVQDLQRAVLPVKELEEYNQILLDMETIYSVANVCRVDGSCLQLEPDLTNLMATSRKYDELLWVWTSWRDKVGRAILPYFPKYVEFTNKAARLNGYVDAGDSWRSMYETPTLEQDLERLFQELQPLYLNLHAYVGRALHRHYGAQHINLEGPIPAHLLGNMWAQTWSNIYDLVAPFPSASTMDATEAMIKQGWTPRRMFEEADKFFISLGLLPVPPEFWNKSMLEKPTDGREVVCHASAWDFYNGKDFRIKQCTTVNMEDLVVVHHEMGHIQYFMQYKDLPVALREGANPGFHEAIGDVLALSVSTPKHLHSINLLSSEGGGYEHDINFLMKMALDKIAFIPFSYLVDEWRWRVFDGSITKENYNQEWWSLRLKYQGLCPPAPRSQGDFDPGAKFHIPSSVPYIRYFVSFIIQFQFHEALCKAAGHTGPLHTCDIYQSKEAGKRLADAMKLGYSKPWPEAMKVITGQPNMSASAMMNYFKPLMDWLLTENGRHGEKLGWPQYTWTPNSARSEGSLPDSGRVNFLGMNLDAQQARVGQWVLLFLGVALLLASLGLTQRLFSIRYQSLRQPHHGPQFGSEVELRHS
Experiment: not given
In kind it is tissue-based, Lung.
Conditions: not given
As to `COc1ccc(C2C(=O)c3ccccc3C2=O)cc1` [ANISINDIONE], the IC50 entry is “Not Active”.

For `O=C1O[C@H]([C@@H](O)CO)C(O)=C1O` [ASCORBIC ACID], the IC50 entry is recorded as “Not Active”.

As for `CN1[C@@H]2CC[C@H]1C[C@@H](OC(=O)C(CO)c1ccccc1)C2` (stereo partly drawn) [ATROPINE], the IC50 result was “Not Active”.

As to `CC(C(=O)O)c1ccc2oc(-c3ccc(Cl)cc3)nc2c1` (stereo not drawn) [BENOXAPROFEN], the IC50 entry was “Not Active”.

For `O=C(O)CCNC(=O)c1ccccc1` [BETAMIPRON], the IC50 result is given as “Not Active”.

`CC(=O)Oc1ccc(C(c2ccc(OC(C)=O)cc2)c2ccccn2)cc1` [BISACODYL]: the IC50 result is “Not Active”.

Regarding `Cc1cc2c(OCC(CNC(C)(C)C)OC(=O)c3ccccc3)cccc2[nH]1` (stereo not drawn) [BOPINDOLOL], the IC50 entry is “Not Active”.

For the next experiment, the target named is Vascular endothelial growth factor receptor 1 (Homo sapiens, UniProt P17948). Briefly: biochemical. In kind it is cell-based, HUVEC. Particulars: huvec. Note: in other assays of this panel Not Active means under 50% inhibition at 10 µM.
Sequence of Vascular endothelial growth factor receptor 1 (P17948 whole entry): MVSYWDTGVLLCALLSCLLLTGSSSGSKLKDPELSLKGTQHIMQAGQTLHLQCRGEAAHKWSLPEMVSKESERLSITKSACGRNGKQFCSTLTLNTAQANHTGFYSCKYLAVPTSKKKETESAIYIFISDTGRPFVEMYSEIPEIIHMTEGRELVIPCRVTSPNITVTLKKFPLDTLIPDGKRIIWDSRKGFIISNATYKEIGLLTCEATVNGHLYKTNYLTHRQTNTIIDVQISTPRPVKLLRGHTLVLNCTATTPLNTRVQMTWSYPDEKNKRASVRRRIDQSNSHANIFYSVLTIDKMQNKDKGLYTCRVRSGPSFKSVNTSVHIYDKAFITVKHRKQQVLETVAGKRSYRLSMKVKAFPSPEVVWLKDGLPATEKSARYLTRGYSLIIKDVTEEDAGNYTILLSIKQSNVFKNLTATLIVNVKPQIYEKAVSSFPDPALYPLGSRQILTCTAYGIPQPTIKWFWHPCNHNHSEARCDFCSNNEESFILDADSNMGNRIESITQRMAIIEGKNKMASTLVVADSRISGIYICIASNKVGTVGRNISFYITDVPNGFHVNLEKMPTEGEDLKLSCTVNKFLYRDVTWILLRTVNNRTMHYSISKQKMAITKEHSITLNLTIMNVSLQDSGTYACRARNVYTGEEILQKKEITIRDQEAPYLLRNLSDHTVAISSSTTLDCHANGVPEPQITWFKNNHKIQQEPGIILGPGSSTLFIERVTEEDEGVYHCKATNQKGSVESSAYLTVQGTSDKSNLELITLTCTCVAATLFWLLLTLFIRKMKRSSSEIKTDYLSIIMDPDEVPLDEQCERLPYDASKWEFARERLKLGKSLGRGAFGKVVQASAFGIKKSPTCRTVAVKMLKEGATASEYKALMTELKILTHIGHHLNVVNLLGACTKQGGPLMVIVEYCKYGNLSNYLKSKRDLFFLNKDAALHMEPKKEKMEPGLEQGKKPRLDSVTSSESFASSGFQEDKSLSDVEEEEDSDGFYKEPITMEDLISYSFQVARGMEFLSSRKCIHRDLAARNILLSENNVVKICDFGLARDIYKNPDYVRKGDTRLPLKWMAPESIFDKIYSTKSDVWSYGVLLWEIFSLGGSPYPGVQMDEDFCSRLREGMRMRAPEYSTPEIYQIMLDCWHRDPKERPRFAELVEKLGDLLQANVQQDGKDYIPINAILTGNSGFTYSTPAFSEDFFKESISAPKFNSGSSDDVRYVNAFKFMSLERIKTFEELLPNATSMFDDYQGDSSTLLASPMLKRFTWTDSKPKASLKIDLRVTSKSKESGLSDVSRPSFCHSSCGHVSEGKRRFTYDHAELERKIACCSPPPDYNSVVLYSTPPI
On to `COc1ccc(C2C(=O)c3ccccc3C2=O)cc1` [ANISINDIONE], for which the IC50 result is listed as “Not Active”.

Take `O=C1O[C@H]([C@@H](O)CO)C(O)=C1O` [ASCORBIC ACID]: the IC50 result is “Not Active”.

Consider `CN1[C@@H]2CC[C@H]1C[C@@H](OC(=O)C(CO)c1ccccc1)C2` (stereo partly drawn) [ATROPINE], for which the IC50 entry is on record as “Not Active”.

`CC(C(=O)O)c1ccc2oc(-c3ccc(Cl)cc3)nc2c1` (stereo not drawn) [BENOXAPROFEN]: the IC50 entry is reported as “Not Active”.

As for `O=C(O)CCNC(=O)c1ccccc1` [BETAMIPRON], the IC50 entry is “Not Active”.

With `CC(=O)Oc1ccc(C(c2ccc(OC(C)=O)cc2)c2ccccn2)cc1` [BISACODYL], the IC50 result is reported as “Not Active”.

Take `Cc1cc2c(OCC(CNC(C)(C)C)OC(=O)c3ccccc3)cccc2[nH]1` (stereo not drawn) [BOPINDOLOL]: the IC50 entry was “Not Active”.

The target of another experiment is T3, Type-2 angiotensin II receptor (Homo sapiens, UniProt P50052). Note: in other assays of this panel Not Active means under 50% inhibition at 10 µM.
T3 sequence (P50052 whole entry): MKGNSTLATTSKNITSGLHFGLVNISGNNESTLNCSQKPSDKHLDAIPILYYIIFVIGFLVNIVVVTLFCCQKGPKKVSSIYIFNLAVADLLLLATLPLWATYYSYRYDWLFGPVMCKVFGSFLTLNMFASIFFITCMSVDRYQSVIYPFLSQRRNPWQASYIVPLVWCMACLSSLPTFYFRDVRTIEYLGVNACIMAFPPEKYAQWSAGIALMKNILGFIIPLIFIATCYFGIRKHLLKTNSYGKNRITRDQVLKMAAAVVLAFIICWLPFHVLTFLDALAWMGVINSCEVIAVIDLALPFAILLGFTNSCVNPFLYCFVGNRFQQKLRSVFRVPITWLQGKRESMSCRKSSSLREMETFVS
Experiment: not given
In kind it is cell-based. Particulars: cho-k1.
In the case of `COc1ccc(C2C(=O)c3ccccc3C2=O)cc1` [ANISINDIONE], the IC50 entry is listed as “Not Active”.

Turning to `O=C1O[C@H]([C@@H](O)CO)C(O)=C1O` [ASCORBIC ACID], the IC50 result was “Not Active”.

For `CN1[C@@H]2CC[C@H]1C[C@@H](OC(=O)C(CO)c1ccccc1)C2` (stereo partly drawn) [ATROPINE], the IC50 result was “Not Active”.

For the molecule `CC(C(=O)O)c1ccc2oc(-c3ccc(Cl)cc3)nc2c1` (stereo not drawn) [BENOXAPROFEN], the IC50 entry was “Not Active”.

As to `O=C(O)CCNC(=O)c1ccccc1` [BETAMIPRON], the IC50 result is “Not Active”.

Take `CC(=O)Oc1ccc(C(c2ccc(OC(C)=O)cc2)c2ccccn2)cc1` [BISACODYL]: the IC50 entry was “Not Active”.

For `Cc1cc2c(OCC(CNC(C)(C)C)OC(=O)c3ccccc3)cccc2[nH]1` (stereo not drawn) [BOPINDOLOL], the IC50 entry is listed as “Not Active”.

Tested on in the next experiment: not listed separately
Briefly: DRUGMATRIX: Serotonin (5-Hydroxytryptamine) 5-HT3 radioligand binding (ligand: [3H] GR-65630). Conditions: hek293; Not Active = under 50% inhibition at 10 µM. In kind it is cell membranes, Membrane.
`COc1ccc(C2C(=O)c3ccccc3C2=O)cc1` [ANISINDIONE]: the IC50 result is “Not Active” and the Ki entry is recorded as “Not Active”.

`O=C1O[C@H]([C@@H](O)CO)C(O)=C1O` [ASCORBIC ACID]: the IC50 entry is recorded as “Not Active” and the Ki result was “Not Active”.

As for `CN1[C@@H]2CC[C@H]1C[C@@H](OC(=O)C(CO)c1ccccc1)C2` (stereo partly drawn) [ATROPINE], the IC50 entry is “Not Active” and the Ki entry is on record as “Not Active”.

For the molecule `CC(C(=O)O)c1ccc2oc(-c3ccc(Cl)cc3)nc2c1` (stereo not drawn) [BENOXAPROFEN], the IC50 result was “Not Active” and the Ki entry is given as “Not Active”.

On to `O=C(O)CCNC(=O)c1ccccc1` [BETAMIPRON], for which the IC50 entry is given as “Not Active” and the Ki result is reported as “Not Active”.

Consider `CC(=O)Oc1ccc(C(c2ccc(OC(C)=O)cc2)c2ccccn2)cc1` [BISACODYL], for which the IC50 result is reported as “Not Active” and the Ki entry is reported as “Not Active”.

On to `Cc1cc2c(OCC(CNC(C)(C)C)OC(=O)c3ccccc3)cccc2[nH]1` (stereo not drawn) [BOPINDOLOL], for which the IC50 entry is “Not Active” and the Ki entry was “Not Active”.

The next experiment concerns the target T4, C-X-C chemokine receptor type 1 (Homo sapiens, UniProt P25024). Note: in other assays of this panel Not Active means under 50% inhibition at 10 µM.
T4 sequence (P25024 whole entry): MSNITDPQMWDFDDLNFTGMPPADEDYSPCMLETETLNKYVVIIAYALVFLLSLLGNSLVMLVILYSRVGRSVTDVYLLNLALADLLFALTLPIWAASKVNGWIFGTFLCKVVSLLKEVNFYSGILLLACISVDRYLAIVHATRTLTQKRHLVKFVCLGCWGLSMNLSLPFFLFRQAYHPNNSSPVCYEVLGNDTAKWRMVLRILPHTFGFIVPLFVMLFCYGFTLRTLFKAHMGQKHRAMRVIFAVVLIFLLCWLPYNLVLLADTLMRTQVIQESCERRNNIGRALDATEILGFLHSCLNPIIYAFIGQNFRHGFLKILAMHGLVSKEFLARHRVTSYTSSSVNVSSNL
Experiment: not given
Conditions: not given
`COc1ccc(C2C(=O)c3ccccc3C2=O)cc1` [ANISINDIONE]: the IC50 result is listed as “Not Active”.

`O=C1O[C@H]([C@@H](O)CO)C(O)=C1O` [ASCORBIC ACID]: the IC50 result is “Not Active”.

Regarding `CN1[C@@H]2CC[C@H]1C[C@@H](OC(=O)C(CO)c1ccccc1)C2` (stereo partly drawn) [ATROPINE], the IC50 result is recorded as “Not Active”.

As for `CC(C(=O)O)c1ccc2oc(-c3ccc(Cl)cc3)nc2c1` (stereo not drawn) [BENOXAPROFEN], the IC50 result was “Not Active”.

For `O=C(O)CCNC(=O)c1ccccc1` [BETAMIPRON], the IC50 result was “Not Active”.

Turning to `CC(=O)Oc1ccc(C(c2ccc(OC(C)=O)cc2)c2ccccn2)cc1` [BISACODYL], the IC50 entry is listed as “Not Active”.

As for `Cc1cc2c(OCC(CNC(C)(C)C)OC(=O)c3ccccc3)cccc2[nH]1` (stereo not drawn) [BOPINDOLOL], the IC50 result is “Not Active”.
